Source: the supplement of paper PMC5412046
Structures can show the parent of a compound that is named as a salt.

Assays:
SB.mhdgc-1 [1] = assay: viability at highest tested concentration (MAXR) relative to DMSO; higher = less cytotoxic; settings: SB.mhdgc-1 (hereditary c.1380delA CDH1 gastric cancer)
Procedure, shortened: (§1)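 Compound in DMSO was pinned (23 nL) at 11 threefold-diluted concentrations into wells containing 500 patient-derived gastric cancer cells, hereditary or sporadic, in 5 μL medium per 1536 well. Cells were incubated for 48 h, then exposed to CellTiter-Glo for 30 min at room temperature. Luminescence was measured on a ViewLux. The values are viability normalised to DMSO, either at the highest concentration or as trapezoidal area under the curve.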

SB.msgc-1 [2] = assay: as above; settings: SB.msgc-1 (sporadic gastric cancer)
Procedure, shortened: as §1

SB.mhdgc-1 [3] = assay: area under the dose-response curve of % viability (trapezoidal, 11 doses) (% viability x log10 concentration); higher = less cytotoxic; settings: SB.mhdgc-1 (hereditary c.1380delA CDH1 gastric cancer)
Procedure, shortened: as §1

SB.msgc-1 [4] = assay: as above; settings: SB.msgc-1 (sporadic gastric cancer)
Procedure, shortened: as §1

Row | Structure (SMILES) | viability (SB.mhdgc-1 [1]) [%] | viability (SB.msgc-1 [2]) [%] | area under the dose-response curve (SB.mhdgc-1 [3]) | area under the dose-response curve (SB.msgc-1 [4])
1 | c1ccc2[nH]c(-c3cscn3)nc2c1 [Thiabendazole] (top concentration 46.0829 µM) | 66.9 | 104 | 469 | 487
2 | CC[C@@H]([C@H](C)O)n1ncn(-c2ccc(N3CCN(c4ccc(OCC5CO[C@@](Cn6cncn6)(c6ccc(F)cc6F)C5)cc4)CC3)cc2)c1=O (stereo partly drawn) [Posaconazole] (top concentration 46.0829 µM) | 40.4 | 25.3 | 448 | 440
3 | CC1(C)[C@H](C(=O)O)N2C(=O)C[C@H]2[S+]1(=O)[O-] [Sulbactam] (top concentration 46.0829 µM) | 80.7 | 91.3 | 535 | 562
4 | CC(C)n1nc(-c2ccc3oc(N)nc3c2)c2c(N)ncnc21 [INK-128] (top concentration 46.0829 µM) | 23.9 | 41.7 | 265 | 354
5 | CC(=O)OCCN1C(=O)c2c(C)nc3ccc([S+](=O)([O-])N4CCOCC4)cc3c2C1=O [Ivachtin] (top concentration 46.0829 µM) | 102 | 120 | 504 | 541
6 | C/C(O)=C(\C#N)C(=O)Nc1ccc(C(F)(F)F)cc1 [Teriflunomide] (top concentration 46.0829 µM) | 13.5 | 20.3 | 515 | 464
7 | CC[C@]1(O)C[C@H]2CN(CCC3=C([NH]C4=C3C=CC=C4)[C@@](C2)(C(=O)OC)C5=CC6=C(C=C5OC)N(C=O)[C@H]7[C@](O)([C@H](OC(C)=O)[C@]8(CC)\C=C/C[N@@]9CC[C@]67[C@H]89)C(=O)OC)C1 [Vincristine sulfate] (top concentration 46.0829 µM) | 33.5 | 36.7 | 260 | 251
8 | C[C@@H]1CC[C@@]2(CC[C@]3(C)\C(=C/C[C@@H]4[C@@]5(C)CC[C@H](O)C(C)(C)[C@@H]5CC[C@@]34C)[C@@H]2[C@H]1C)C(O)=O [Ursolic acid] (top concentration 92.1659 µM) | 3.71 | 4.45 | 478 | 495
9 | CC1(C)Cc2c(sc(NC(=S)NC(=O)c3ccccc3)c2C(=O)O)CO1 (top concentration 46.0829 µM) | 23.8 | 47.7 | 480 | 502
10 | COc1c(N2C[C@@H]3CCCN[C@@H]3C2)c(F)cc2c(=O)c(C(=O)O)cn(C3CC3)c12.Cl.O [Moxifloxacin hydrochloride] (top concentration 46.0829 µM) | 92.9 | 67.6 | 560 | 507
11 | CNC(=O)c1ccc2cc(C3(O)CCn4cncc43)ccc2c1 (stereo not drawn) [Orteronel] (top concentration 46.0829 µM) | 109 | 94.9 | 556 | 534
12 | CC(=O)[C@H]1CC[C@H]2[C@@H]3C/C=C4/C[C@@H](O)CC[C@]4(C)[C@H]3CC[C@]12C [Pregnenolone] (top concentration 46.0829 µM) | 82.7 | 80.8 | 586 | 523
13 | O=C(O)c1ccc(-c2c[nH]c3ncc(-c4ccccc4)cc23)cc1C1CCCC1 (top concentration 46.0829 µM) | 116 | 89 | 484 | 474
14 | CNCC(O)c1ccc(O)cc1 (stereo not drawn) [Synephrine] (top concentration 46.0829 µM) | 122 | 110 | 542 | 560
15 | C[C@H](NC(=O)[C@@H](O)c1cc(F)cc(F)c1)C(=O)N[C@@H]1C(=O)N(C)c2ccccc2-c2ccccc21 (top concentration 46.0829 µM) | 88.9 | 97.4 | 500 | 522
16 | C[C@H]1C[C@H]2[C@@H]3CCC4=CC(=O)C=C[C@]4(C)[C@@]3(F)[C@@H](O)C[C@]2(C)[C@@]1(O)C(=O)CO [Dexamethasone] (top concentration 46.0829 µM) | 120 | 118 | 556 | 558
17 | C[S+]([O-])(=O)C1=CC=C(C=C1)C/2=C(/C(=O)OC2)C3=CC=CC=C3 [Rofecoxib] (top concentration 46.0829 µM) | 118 | 105 | 555 | 545
18 | CC(C)(O)C(=O)Nc1ccc([N+](=O)[O-])c(C(F)(F)F)c1 [Hydroxyflutamide] (top concentration 46.0829 µM) | 2.92 | 69.9 | 503 | 530
19 | Cc1cn([C@@H]2O[C@H](CO)[C@@H](O)[C@@H]2F)c(=O)[nH]c1=O [Clevudine] (top concentration 46.0829 µM) | 105 | 111 | 541 | 531
20 | CN(C)CCN(C)C(=O)c1ccc(NC(=O)Nc2ccc(-c3nc(N4CCOCC4)c4ccn(CC(F)(F)F)c4n3)cc2)cc1 (top concentration 46.0829 µM) | 2.92 | 4.2 | 162 | 332
21 | CC(C)Oc1ccc(C(=O)N[C@H](CNC(=O)CN(C)C)Cc2ccc(-c3cn4cccc([C@H](C)O)c4n3)cc2)cc1Cl (top concentration 46.0829 µM) | 13.2 | 38.2 | 397 | 364
22 | Nc1nc(OCc2ccccc2)c2nc[nH]c2n1 [O6-Benzylguanine] (top concentration 46.0829 µM) | 102 | 74.2 | 555 | 464
